Measured values reported in patent publication US7371720B2, “Cationic peptides of the phylloseptin family isolated from the skin secretion of Phyllomedusa hypochondrialis” (Empressa Brasileira de Pesquisa Agropecuaria - Embrapa, priority 2001, dated 2008).
Peptide text beside a SMILES is read from it.

Tests used:
Assay type in all cases: cell-based
human red blood cells = experiment: Hemolysis assay
Procedure: Human erythrocytes (blood type O^−) from a healthy person were freshly prepared prior to each experiment. Hemolytic activity was assayed as described by Aboudy etal (Aboudy, Y., Mendelson, E., Shalit, I., Bessalle, R., Fridikin, M. 1994. Int. J. Peptide Protein Res. 43, 573-582.) with minor modifications. Three milliliters of freshly prepared erythrocytes (for methodology see Gibson, B. W., Tang, D., Mandrell, R., Kelly, M. and Spindel, E. R. 1991. J. Biol. Chem. 266, 23103-23111.21) was washed with isotonic phosphate-buffered saline (PBS), pH 7.4, until the color of the supernatant turned clear. The washed erythrocytes were then diluted to a final volume of 20 ml in the same buffer. Aliquots of cell suspentions (190 μl) containing samples (10 μl) were serially diluted in PBS, incubated at 37° C. for 30 min and then centrifuged at 4000×g for 5 min; 100 μl of supernatant was taken, diluted to 1.0 ml with PBS, and monitored at 567 nm. The relative optical density, as compared with that of the cell suspension treated with 0.2% Triton X-100, was defined as % hemolysis.
The hemolytic activity of Phylloseptin I and II was tested at different concentrations.

[1] = tested on: Enterococcus faecalis ATTC 29212; settings: 20 h, 37° C., TSB, 100% growth inhibition
Procedure: (§1) The microorganisms Escherichia coli ATTC 25922, Pseudomonas aeroginosa ATTC 27853, Staphylococcus aureus ATTC 25923 and Enterococcus faecalis ATTC 29212 and a Brazilian strain of P. aeroginosa were used for the anti-microbial assay
(§2) The microorganisms were cultured in stationary culture at 37° C. Bacteria were grown in Tryptic Soy Broth (TSB). The bioassays were performed by liquid growth inhibition assay lawn as described by Bulet et al (Bulet, P., Dimarcq, J. L., Hetru, C., Lagueux, M., Charlet, M., Hegy, G., VanDorsselaer, A. and Hoffmann, J. A. 1993. J. Biol. Chem. 268, 14893-14897). Molecules of Phylloseptin I were dissolved in sterile distilled and deionized water and diluted 8-fold in TSB (OXIOD England) broth. Various concentrations of PSI solution were tested, being the highest 128 μg/ml. The initial inoculum was approximately 1×10^5 colony forming units (CFU)/ml and limit of detection was 10^2 CFU/ml. The final volume was 250 μl (25 μl of the peptide test in water, 25 μl of the inoculum in TSB, and 200 μl of TSB broth). The minimal inhibitory concentration (MIC) was measured for turbidity (OD at 595 nm) 20 h after all microorganisms were grown in stationary culture at 37° C. The lowest concentration of the peptide in which no growth occurred was defined as the MIC.
(§3) The minimal inhibitory concentrations (MICs) of the isolated Phylloseptin I against several Gram-positive and Gram-negative bacteria were determined as described by Park et al (Park, C. B., Kim, M. S., and Kim, S. C. 1996. 218 Biochem. Biophys. Res. Commun. 408-413.). […] That is, the minimal inhibitory concentration was defined as the peptide concentration which produces 100% of microorganism growth inhibition after 20 h incubation in culture media.

[2] = tested on: Escherichia coli ATTC 25922; settings: 20 h, 37° C., TSB, 100% growth inhibition
Procedure: as §1, §2, §3

[3] = tested on: Staphylococcus aureus ATTC 25923; settings: Staphilococcus aureus ATTC; 20 h, 37° C., TSB; 100% growth inhibition
Procedure: as §1, §2, §3

[4] = tested on: Pseudomonas aeruginosa wt; settings: Pseudomonas aeruginosa wt (Brazilian strain); 20 h, 37° C., TSB; 100% growth inhibition
Procedure: as §1, §2, §3

[5] = tested on: Pseudomonas aeroginosa ATTC 27853; settings: Pseudomonas aeruginosa ATTC; 20 h, 37° C., TSB; 100% growth inhibition
Procedure: as §1, §2, §3

| Compound | Minimal Inhibitory concentration [1] [µg/mL] | Minimal Inhibitory concentration [2] [µg/mL] | Minimal Inhibitory concentration [3] [µg/mL] | Minimal Inhibitory concentration [4] [µg/mL] | Minimal Inhibitory concentration [5] [µg/mL] | further results |
| --- | --- | --- | --- | --- | --- | --- |
| CC[C@H](C)[C@H](NC(=O)[C@H](C)NC(=O)[C@H](Cc1c[nH]cn1)NC(=O)[C@@H]1CCCN1C(=O)[C@@H](NC(=O)[C@H](CC(C)C)NC(=O)[C@H](CO)NC(=O)[C@H](CC(C)C)NC(=O)[C@@H](N)Cc1ccccc1)[C@@H](C)CC)C(=O)N[C@@H](CC(N)=O)C(=O)N[C@@H](C)C(=O)N[C@H](C(=O)N[C@@H](CO)C(=O)N[C@H](C(=O)N[C@@H](CC(C)C)C(=O)N[C@H](C(=O)N[C@@H](Cc1c[nH]cn1)C(=O)N[C@@H](Cc1c[nH]cn1)C(=O)N[C@@H](Cc1ccccc1)C(=O)O)C(C)C)[C@@H](C)O)C(C)C [PS II, Phe Leu Ser Leu Ile Pro His Ala Ile Asn Ala Val Ser Thr Leu Val His His Phe] (H-FLSLIPHAINAVSTLVHHF-OH) | – | – | – | – | – | % Hemolysis of human red blood cells (human red blood cells; red cells of human, 1 μg/mL): 0.00%; % Hemolysis of human red blood cells (human red blood cells; red cells of human, 2 μg/mL): 0.00%; % Hemolysis of human red blood cells (human red blood cells; red cells of human, 4 μg/mL): 0.10%; % Hemolysis of human red blood cells (human red blood cells; red cells of human, 8 μg/mL): 0.28%; % Hemolysis of human red blood cells (human red blood cells; red cells of human, 16 μg/mL): 0.70%; % Hemolysis of human red blood cells (human red blood cells; red cells of human, 32 μg/mL): 0.80%; % Hemolysis of human red blood cells (human red blood cells; red cells of human, 64 μg/mL): 1.05%; % Hemolysis of human red blood cells (human red blood cells; red cells of human, 128 μg/mL): 2.05% |
| CC1(C)S[C@@H]2[C@H](NC(=O)[C@H](N)c3ccccc3)C(=O)N2[C@H]1C(=O)O [Amplicilyn] | 128 | 64 | – | – | – | – |
| O=C(N[C@H](CO)[C@H](O)c1ccc([N+](=O)[O-])cc1)C(Cl)Cl [Chloranfenicol] | 32 | 32 | 32 | – | – | – |
| Polimixyn B | – | 64 | – | 16 | 16 | – |
| CC[C@H](C)[C@H](NC(=O)[C@H](C)NC(=O)[C@H](CO)NC(=O)[C@@H](NC(=O)[C@H](C)NC(=O)[C@H](CC(N)=O)NC(=O)[C@@H](NC(=O)[C@H](C)NC(=O)[C@H](Cc1c[nH]cn1)NC(=O)[C@@H]1CCCN1C(=O)[C@@H](NC(=O)[C@H](CC(C)C)NC(=O)[C@H](CO)NC(=O)[C@H](CC(C)C)NC(=O)[C@@H](N)Cc1ccccc1)[C@@H](C)CC)[C@@H](C)CC)C(C)C)C(=O)N[C@@H](C)C(=O)N[C@@H](CCCCN)C(=O)N[C@@H](Cc1c[nH]cn1)C(=O)N[C@@H](CC(N)=O)C(=O)O [PS I, Phe Leu Ser Leu Ile Pro His Ala Ile Asn Ala Val Ser Ala Ile Ala Lys His Asn] (H-FLSLIPHAINAVSAIAKHN-OH) | 8 | 16 | 16 | 6 | 8 | % Hemolysis of human red blood cells (human red blood cells; 1 μg/mL (0.496 μM), 37° C., 30 min, relative to 0.2% Triton X-100): 0.00%; % Hemolysis of human red blood cells (human red blood cells; 2 μg/mL (0.990 μM), 37° C., 30 min, relative to 0.2% Triton X-100): 0.00%; % Hemolysis of human red blood cells (human red blood cells; 4 μg/mL (1.980 μM), 37° C., 30 min, relative to 0.2% Triton X-100): 0.00%; % Hemolysis of human red blood cells (human red blood cells; 8 μg/mL (3.968 μM), 37° C., 30 min, relative to 0.2% Triton X-100): 0.30%; % Hemolysis of human red blood cells (human red blood cells; 16 μg/mL (7.937 μM), 37° C., 30 min, relative to 0.2% Triton X-100): 0.57%; % Hemolysis of human red blood cells (human red blood cells; 32 μg/mL (15.873 μM), 37° C., 30 min, relative to 0.2% Triton X-100): 0.60%; % Hemolysis of human red blood cells (human red blood cells; 64 μg/mL (31.746 μM), 37° C., 30 min, relative to 0.2% Triton X-100): 0.98%; % Hemolysis of human red blood cells (human red blood cells; 128 μg/mL (63.492 μM), 37° C., 30 min, relative to 0.2% Triton X-100): 1.98% |
| Gentamicyn | – | 64 | – | 64 | 64 | – |
